Laboratory results as given in ChEMBL document CHEMBL1201862, “PubChem BioAssay data set” (2004).
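Five compound concentrations were applied to cells in 96-well plates for 48 hours; endpoints were derived by simple linear interpolation of the resulting dose-response curve. The concentration for 50% growth inhibition is given as GI50.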 The source made the active and inactive calls. No stated cut-off is given here; in the data, active = GI50 up to about 1.1 µM and inactive = higher.

What was measured:
Assay in all cases: growth of human tumour cells (NCI), 48 h
U-251 = tested on: U-251
OVCAR-8 = tested on: OVCAR-8
BT-549 = tested on: BT-549
Hs-578T = tested on: Hs-578T
HOP-62 = tested on: HOP-62
OVCAR-4 = tested on: OVCAR-4
NCI-H23 = tested on: NCI-H23
UACC-257 = tested on: UACC-257
Malme-3M = tested on: Malme-3M
HCT-116 = tested on: HCT-116
TK-10 = tested on: TK-10
NCI-H522 = tested on: NCI-H522
COLO 205 = tested on: COLO 205
SNB-19 = tested on: SNB-19
NCI-H226 = tested on: NCI-H226
HT-29 = tested on: HT-29
SK-MEL-28 = tested on: SK-MEL-28
RPMI-8226 = tested on: RPMI-8226
DU-145 = tested on: DU-145
SK-MEL-5 = tested on: SK-MEL-5
MDA-MB-231 = tested on: MDA-MB-231
OVCAR-5 = tested on: OVCAR-5
CAKI-1 = tested on: CAKI-1
SK-OV-3 = tested on: SK-OV-3
HL-60 = tested on: HL-60
SR = tested on: SR
PC-3 = tested on: PC-3
HOP-92 = tested on: HOP-92
UO-31 = tested on: UO-31
A549 = tested on: A549
M14 = tested on: M14
SF-295 = tested on: SF-295
K562 = tested on: K562
KM12 = tested on: KM12
LOX IMVI = tested on: LOX IMVI
IGROV-1 = tested on: IGROV-1
NCI-H460 = tested on: NCI-H460
SN12C = tested on: SN12C
786-0 = tested on: 786-0
EKVX = tested on: EKVX
MDA-MB-435 = tested on: MDA-MB-435
RXF 393 = tested on: RXF 393
ACHN = tested on: ACHN
CCRF-CEM = tested on: CCRF-CEM
MOLT-4 = tested on: MOLT-4
NCI/ADR-RES = tested on: NCI/ADR-RES
SW-620 = tested on: SW-620
HCT-15 = tested on: HCT-15
MDA-N = tested on: MDA-N
OVCAR-3 = tested on: OVCAR-3
SF-539 = tested on: SF-539
MCF7 = tested on: MCF7
SF-268 = tested on: SF-268
T47D = tested on: T47D
SK-MEL-2 = tested on: SK-MEL-2
UACC-62 = tested on: UACC-62

Measured: GI50

C/C(=N/O)c1cccc(Nc2nc3ccccc3c3[nH]c4ccccc4c23)c1
inactive: U-251 3.16 µM | OVCAR-8 2.65 µM | BT-549 12.8 µM | Hs-578T 3.24 µM | HOP-62 2.29 µM | OVCAR-4 2.33 µM | NCI-H23 3.08 µM | UACC-257 6.08 µM | Malme-3M 3.92 µM | HCT-116 1.16 µM | TK-10 4.6 µM | NCI-H522 1.5 µM | COLO 205 2.24 µM | SNB-19 4.08 µM | NCI-H226 4.8 µM | HT-29 1.57 µM | SK-MEL-28 3.6 µM | RPMI-8226 2.26 µM | DU-145 1.74 µM | SK-MEL-5 1.63 µM | MDA-MB-231 2.95 µM | OVCAR-5 2.65 µM | CAKI-1 2.75 µM | SK-OV-3 5.98 µM | HL-60 3.08 µM | SR 1.15 µM | PC-3 2.93 µM | HOP-92 2.51 µM | UO-31 2.88 µM | A549 2.22 µM | M14 2.6 µM | SF-295 1.98 µM | K562 3.44 µM | KM12 2.58 µM | LOX IMVI 2.22 µM | IGROV-1 3.19 µM | NCI-H460 1.64 µM | SN12C 3.4 µM | 786-0 2.3 µM | EKVX 2.29 µM | MDA-MB-435 2.5 µM | RXF 393 1.89 µM | ACHN 1.59 µM | CCRF-CEM 2.39 µM | NCI/ADR-RES 2.99 µM | SW-620 1.63 µM | MDA-N 1.82 µM | OVCAR-3 2.22 µM | SF-539 5.74 µM | MCF7 1.48 µM | SF-268 1.87 µM | T47D 1.52 µM | SK-MEL-2 2.25 µM | UACC-62 2.28 µM
active: MOLT-4 0.879 µM
2.36 µM: HCT-15
